Columns and labels:
[1] = system: tumor cells derived from ATL acute patients; test: Apoptosis assay (annexin V-FITC/PI, DIOC), acute ATL cells; format: cell-based, human
Procedure: Two million of PBMC from HTLV-1 patients were treated for 96 h with IL-2 and PHA in the presence or absence of A24 (10 μg/ml), 30.9 (10 μg/ml) or of the apoptosis-inducing agent VP16 (100 ng/ml). Cells were then washed with ice-cold PBS and incubated with a combination of annexin V-FITC and propidium iodide (PI) (Beckman-Coulter, Marseilles, France), according to the manufacturer recommendations. Alternatively, the apoptosis was evaluated through mitochondrial membrane depolarization with the DIOC staining (Molecular Probes) as described earlier (ZERMATI et al., J Exp Med., 193, 247-254, 2001).
Fe deprivation induces a variety of consequences, such as the reduction of cell proliferation and the activation of programmed cell death (HAQ et al., Exp Hematol., 23, 428-432, 1995), a phenomenon associated with phosphatidylserine exposure and mitochondrial membrane depolarization. […] The results are shown of FIGS. 7 A and 7B.
Comparative effect of A24, 30.9 and VP 16 on the induction of programmed cell death in selected cells. Cells were activated or not with PHA and IL-2 and incubated in the presence of 30.9, A24 and VP16. Apoptotic and necrotic cells were followed by flow cytometry using an annexin-V-FITC/PI kit. […] Data represents one out of three different experiments.

EBV+ and EBV− MCL lines = test: MCL cell proliferation, radioactive thymidine incorporation; format: cell-based, human; settings: 72 hours, […] to 20 μg/ml
Excerpt: The cellular proliferation is expressed as a percent of the proliferation of untreated control cells. The results are shown on FIG. 10.

CD20 = target: T1, CD20 (Homo sapiens, UniProt P11836); test: CD20 expression at the surface of MCL cell lines, flow cytometry; format: cell-based; settings: Rituximab 10 μg/ml, 30 minutes to 72 hours
T1 construct: target receptors TfR and CD20 at the surface of a MCL cell line EBV+ and a MCL cell line EBV^−; endogenous in cells; host or cells: MCL-derived B-cell lines (EBV+ and EBV-)
T1 sequence (P11836 1-297): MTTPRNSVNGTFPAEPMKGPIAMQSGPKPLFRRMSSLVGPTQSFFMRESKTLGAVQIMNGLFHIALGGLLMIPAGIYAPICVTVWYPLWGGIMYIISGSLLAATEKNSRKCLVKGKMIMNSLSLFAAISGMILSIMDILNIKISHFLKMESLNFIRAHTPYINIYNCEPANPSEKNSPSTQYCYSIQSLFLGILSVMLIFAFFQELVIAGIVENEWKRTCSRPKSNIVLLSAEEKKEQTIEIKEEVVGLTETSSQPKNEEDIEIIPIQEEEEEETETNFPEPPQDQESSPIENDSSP
Excerpt: In a first time, we checked by flow cytometry the rate of expression of TfR and CD20 on […] B-cells lines (EBV+ and EBV^−) derived from MCL5. using an anti-CD71-PE antibody (Beckman-Coulter) and an anti-CD20-PE antibody (Becton Dickinson). The results are shown on FIGS. 8 A and B. The gray histograms respectively represent the rate of expression of the CD71 (A) and of the CD20 (B) at the surface of MCL cells EBV+ (a,b,c,e,f,g) or EBV^− (d). This rate is specified on each histogram after substraction of the background noise of the staining.
The results are shown on FIGS. 9A (A24) and 9B (Rituximab).

[2] = system: HTLV-1 infected T cell clones; test: Emergence of HTLV-1 infected T cell clones, 2-week culture; format: cell-based, human; settings: chronic ATL PBMC, single dose on first day, 2 weeks
Procedure: HTLV-1 infected cells can proliferate in vitro, but the clones that proliferate in culture are generally not the same as those that proliferate in the patient. To verify if A24 could inhibit the emergence of HTLV-1 infected T cell clones, we cultured cells freshly isolated from patients and from healthy individuals in the presence or absence of A24. PBMC from HTLV-1 infected patients with a chronic ATL form were plated in culture wells with the 30.9, A24 or Ars for 2 weeks. Emergence of HTLV-1 clones was evaluated by [3H] thymidine incorporation. After 2 weeks of culture, the appearance of proliferating cells was assessed by [3H] thymidine incorporation.

[3] = system: resting T cells co-cultured with dendritic cells; test: Allogeneic Mixed Leukocyte Reaction (MLR), DC-induced T cell proliferation; format: cell-based, human; settings: 6 days of culture
Excerpt: Peripheral blood mononuclear cells (PBMC) were isolated as described earlier by the standard Ficoll-Paque method (Amersham Life Science, Buckinghamshire, U.K.) (BAZARBACHI et al, Blood., 93, 278-283, 1999). The healthy volunteers and the 4 acute and 3 chronic ATL patients (classified following Shirono criteria) (SHIRONO et al., Leukemia., 8, 1834-1837, 1994) had all given their informed consent. ATL tumor cells represented between 60-90% of the T cell population. Each cell type was freshly cultured in conditioned RPMI-1640 medium supplemented with 10% of fetal calf serum (FCS, Gibco BRL) and a mixture of interleukin-2 (20 U/ml IL-2) and phytohemagglutinin (4 μg/ml PHA). Mixed leukocyte reaction (MLR) was performed as described earlier (TORDJMAN et al., Nat Immunol., 3, 477-482, 2002). CIB tropical spastic paraparesis (HAM/TSP) cell line was cultured in RPMI-1640 medium supplemented with 10% of FCS.
To test if A24 could also block physiologically activated T cell proliferation, we examined the effect of A24 in allogeneic Mixed Leukocyte Reaction (MLR). DC-induced allogenic T cell proliferation was evaluated after 6 days of culture in the presence of A24, control antibody (30.9) or arsenic trioxide (Ars). The results are shown in FIG. 1 B. Data represents means SD of one out of three separate experiments. […]

[4] = system: peripheral blood leukocytes (PBMC); test: Proliferation of PHA/IL-2-activated PBMC from healthy individuals, [3H]-thymidine incorporation; format: cell-based, human; settings: PHA/IL-2, 72 h
Procedure: (§1) PBMC were resuspended in RPMI-1640 with 10% FCS, and added in triplicates at the concentration of 10^5 cells/well in 96-well tissue culture plates (Falcon, Oxnard, Calif.). Proliferation was measured over 18 h, using pulses with 1 μCi/well of [^3H]-thymidine (Amersham Life Science, Buckinghamshire, U.K.). Cells were then harvested with a 96-well Harvester (Pharmacia, St. Quentin, France), collected on filters (Pharmacia) and the incorporation of [^3H] thymidine was measured with β-plate microscintillation counter (LKB, Pharmacia).
To investigate the activity of A24 on peripheral blood leukocytes (PBMC) proliferation, cells were activated with PHA/IL-2 and incubated with different concentrations of A24 (0 to 50 μg/ml) or control antibody (30.9) (0 to 50 μg/ml) for 72 h before [^3H]-thymidine incorporation.
(§2) TfR expression is essential for the proliferation of both normal and malignant T cells. While TfR expression in normal T cells is tightly coupled to interleukin-2 receptor expression, TfR expression in malignant cells is usually constitutive. It was previously shown that the anti-IL-2Rα can efficiently block the ex vivo proliferation of cells derived from chronic ATL patients. […] Proliferation of these cells was then measured by [^3H] thymidine incorporation. […]

[5] = system: PBMC from HTLV-I infected patients with acute or chronic ATL; test: Proliferation of PBMC from ATL patients, PHA/IL-2, [3H] thymidine incorporation; format: cell-based, human; settings: PHA/IL-2, 72 h
Procedure: as §1
PBMC from healthy individuals (a) and HTLV-I infected patients with an acute ATL (b) or a chronic ATL (c) were plated in culture wells with A24 or a control antibody (30.9) in the presence of PHA/IL-2, for 72 h before [3H] thymidine incorporation. The results are shown on FIG. 2C.
as §2

With `COc1cc([C@@H]2c3cc4c(cc3[C@@H](O[C@@H]3O[C@@H]5CO[C@@H](C)O[C@H]5[C@H](O)[C@H]3O)[C@H]3COC(=O)[C@H]23)OCO4)cc(OC)c1O` [VP 16] the annexin-V staining ([1]; A24 10 μg/ml, VP16 100 ng/ml, 96 h) was “a large population that stained brightly with annexin-V appeared” and the “DIOC staining (mitochondrial depolarization)” value ([1]; activated leukocytes from ATL acute patient) was “drastic reduction”.

With “Rituximab: anti-CD20 antibody manufactured by Genentech” the “inhibition of MCL proliferation” value (EBV+ and EBV− MCL lines) was ≤ 20% and the “expression of the CD20” value (CD20) was “does not induce notable reduction”.

In the case of arsenic trioxide, the “effect on proliferation of HTLV-1 infected T cell clones” value [2] is reported as “more efficient than A24” and the “effect on T cell proliferation” value [3] is reported as “block T cell proliferation”.

B1: anti-IL-2Rα: anti-IL-2Rα monoclonal antibody (Zenapax from Hoffmann-La Roche) (antibody, chains of the INN, looked up, V domains shown)
VH: QVQLVQSGAEVKKPGSSVKVSCKASGYTFTSYRMHWVRQAPGQGLEWIGYINPSTGYTEYNQKFKDKATITADESTNTAYMELSSLRSEDTAVYYCARGGGVFDYWGQGTLVTVSS
VL: DIQMTQSPSTLSASVGDRVTITCSASSSISYMHWYQQKPGKAPKLLIYTTSNLASGVPARFSGSGSGTEFTLTISSLQPDDFATYYCHQRSTYPLTFGQGTKVEVK
In the case of B1, the “effect on PHA/IL-2-induced cell proliferation” value [4] is reported as “significantly inhibited”, the “effect on cell proliferation, acute ATL” value ([5]; acute ATL) is reported as “did not block” and the “effect on cell proliferation, chronic ATL” value ([5]; chronic ATL) is reported as “significantly inhibited”.
